Laboratory results reported in patent US7811797B2, “α-isomaltosylglucosaccharide-forming enzyme, process and uses of the same” (Kabushiki Kaisha Hayashibara Seibutsu Kagaku Kenkyujo, priority 2000, dated 2010).

Tests used:
Design in all cases: key: −: no saccharide-transferred product was detected through transfer reaction to acceptor; ∀: a saccharide-transferred product was detected in an amount less than one percent through transfer reaction to acceptor; +: a saccharide-transferred product was detected in an amount over one percent but less than ten percent through transfer reaction to acceptor; ++: a saccharide-transferred product was detected in an amount over ten percent through transfer reaction to acceptor
[1] = system: α-isomaltosylglucosaccharide-forming enzyme; experiment: Transfer-acceptor specificity, Enzyme of Strain N75; assay type: biochemical, Bacillus globisporus N75; details: acceptor 1.6%, PINE-DEX #100 donor 4%, one unit/g donor, 30° C., pH 6.0, 24 hours
Description: (§1) Using different saccharides, it was tested whether the saccharides were used as transferring-acceptors for the α-isomaltosylglucosaccharide-forming enzyme of the present invention. A solution of D-glucose, D-xylose, L-xylose, D-galactose, D-fructose, D-mannose, D-arabinose, D-fucose, D-psicose, L-sorbose, L-rhamnose, methyl-α-glucopyranoside, methyl-β-glucopyranoside, N-acetyl-glucosamine, sorbitol, trehalose, isomaltose, isomaltotriose, cellobiose, gentibiose, glycerol, maltitol, lactose, sucrose, α-cyclodextrin, β-cyclodextrin, γ-cyclodextrin, or L-ascorbic acid was prepared.
(§2) To each solution with a saccharide concentration of 1.6% was added “PINE-DEX #100”, a partial starch hydrolysate, as a saccharide donor, to give a concentration of 4%, and admixed with one unit/g saccharide donor, d.s.b., of either of purified specimens of α-isomaltosylglucosaccharide-forming enzyme from Bacillus globisporus C9 obtained by the method in Experiment 4-2, Bacillus globisporus C11 obtained by the method in Experiment 7-2, Bacillus globisporus N75 obtained by the method in Experiment 11-2, or Arthrobacter globiformis A19 obtained by the method in Experiment 15-2, and incubated at 30° C. and pH 6.0, except that pH 8.4 was used for the enzyme from Arthrobacter globiformis A19, for 24 hours. The reaction mixtures of the post-enzymatic reactions were analyzed on gas chromatography (abbreviated as “GLC” hereinafter) for monosaccharides and disaccharides as acceptors, and on HPLC for trisaccharides as acceptors to confirm whether these saccharides could be used as their transfer acceptors. In the case of performing GLC, the following apparatuses and conditions are used: GLC apparatus, “GC-16A” commercialized by Shimadzu Corporation, Tokyo, Japan; column, a stainless-steel column, 3 mm in diameter and 2 m in length, packed with 2% “SILICONE OV-17/[…]”, commercialized by GL Sciences Inc., Tokyo, Japan; carrier gas, nitrogen gas at a flow rate of 40 ml/min under temperature conditions of increasing from 160° C. to 320° C. at an increasing temperature rate of 7.5° C./min; and detection, a hydrogen flame ionization detector. In the case of HPLC analysis, the apparatuses and conditions used are: HPLC apparatus, “CCPD” commercialized by Tosoh Corporation, Tokyo, Japan; column, “ODS-AQ-303” commercialized by YMC Co., Ltd., Tokyo, Japan; eluent, water at a flow rate of 0.5 ml/min; and detection, a differential refractometer.

[2] = system: α-isomaltosylglucosaccharide-forming enzyme; experiment: Transfer-acceptor specificity, Enzyme of Strain C11; assay type: biochemical, Bacillus globisporus C11; details: acceptor 1.6%, PINE-DEX #100 donor 4%, one unit/g donor, 30° C., pH 6.0, 24 hours
Description: as §1, §2

[3] = system: α-isomaltosylglucosaccharide-forming enzyme; experiment: Transfer-acceptor specificity, Enzyme of Strain C9; assay type: biochemical, Bacillus globisporus C9; details: acceptor 1.6%, PINE-DEX #100 donor 4%, one unit/g donor, 30° C., pH 6.0, 24 hours
Description: as §1, §2

[4] = system: α-isomaltosylglucosaccharide-forming enzyme; experiment: Transfer-acceptor specificity, Enzyme of Strain A19; assay type: biochemical, Arthrobacter globiformis A19; details: acceptor 1.6%, PINE-DEX #100 donor 4%, one unit/g donor, 30° C., pH 8.4, 24 hours
Description: as §1, §2

`O=C(CO)[C@H](O)[C@H](O)[C@H](O)CO` [D-Psicose] was tested, and the “Product of transferring reaction, Enzyme of Strain N75” value (“Product … of Strain N75” below) [1] was “+ (a saccharide-transferred product was detected in an amount over one percent but less than ten percent through transfer reaction to acceptor)”, the “Product of transferring reaction, Enzyme of Strain C11” value (“Product … of Strain C11” for short) [2] was “+ (a saccharide-transferred product was detected in an amount over one percent but less than ten percent through transfer reaction to acceptor)” and the “Product of transferring reaction, Enzyme of Strain C9” value (from here on “Product … of Strain C9”) [3] was “+ (a saccharide-transferred product was detected in an amount over one percent but less than ten percent through transfer reaction to acceptor)”. For the same compound, the “Product of transferring reaction, Enzyme of Stain A19” value (“Product … of Stain A19” for short) [4] was “+ (a saccharide-transferred product was detected in an amount over one percent but less than ten percent through transfer reaction to acceptor)”.

`OC[C@H]1O[C@@H]2O[C@H]3[C@H](O)[C@@H](O)[C@@H](O[C@H]4[C@H](O)[C@@H](O)[C@@H](O[C@H]5[C@H](O)[C@@H](O)[C@@H](O[C@H]6[C@H](O)[C@@H](O)[C@@H](O[C@H]7[C@H](O)[C@@H](O)[C@@H](O[C@H]8[C@H](O)[C@@H](O)[C@@H](O[C@H]1[C@H](O)[C@H]2O)O[C@@H]8CO)O[C@@H]7CO)O[C@@H]6CO)O[C@@H]5CO)O[C@@H]4CO)O[C@@H]3CO` [β-Cyclodextrin] was tested, and the “Product … of Strain N75” value [1] was “−”, the “Product … of Strain C11” value [2] was “−” and the “Product … of Strain C9” value [3] was “−”. For the same compound, the “Product … of Stain A19” value [4] was “−”.

`O=C[C@H](O)[C@@H](O)[C@H](O)[C@H](O)CO` [D-Glucose, reference compound] was tested, and the “Product … of Strain N75” value [1] was “+ (a saccharide-transferred product was detected in an amount over one percent but less than ten percent through transfer reaction to acceptor)”, the “Product … of Strain C11” value [2] was “+ (a saccharide-transferred product was detected in an amount over one percent but less than ten percent through transfer reaction to acceptor)” and the “Product … of Strain C9” value [3] was “+ (a saccharide-transferred product was detected in an amount over one percent but less than ten percent through transfer reaction to acceptor)”. For the same compound, the “Product … of Stain A19” value [4] was “+ (a saccharide-transferred product was detected in an amount over one percent but less than ten percent through transfer reaction to acceptor)”.

`CC(=O)N[C@H]1C(O)O[C@H](CO)[C@@H](O)[C@@H]1O` (stereo partly drawn) [N-Acetyl-glucosamine] was tested, and the “Product … of Strain N75” value [1] was “+ (a saccharide-transferred product was detected in an amount over one percent but less than ten percent through transfer reaction to acceptor)”, the “Product … of Strain C11” value [2] was “+ (a saccharide-transferred product was detected in an amount over one percent but less than ten percent through transfer reaction to acceptor)” and the “Product … of Strain C9” value [3] was “+ (a saccharide-transferred product was detected in an amount over one percent but less than ten percent through transfer reaction to acceptor)”. The “Product … of Stain A19” value [4] was “−”.

For `OC[C@H]1O[C@@H]2O[C@H]3[C@H](O)[C@@H](O)[C@@H](O[C@H]4[C@H](O)[C@@H](O)[C@@H](O[C@H]5[C@H](O)[C@@H](O)[C@@H](O[C@H]6[C@H](O)[C@@H](O)[C@@H](O[C@H]7[C@H](O)[C@@H](O)[C@@H](O[C@H]8[C@H](O)[C@@H](O)[C@@H](O[C@H]9[C@H](O)[C@@H](O)[C@@H](O[C@H]1[C@H](O)[C@H]2O)O[C@@H]9CO)O[C@@H]8CO)O[C@@H]7CO)O[C@@H]6CO)O[C@@H]5CO)O[C@@H]4CO)O[C@@H]3CO` [γ-Cyclodextrin], the “Product … of Strain N75” value [1] was “−”, the “Product … of Strain C11” value [2] was “−” and the “Product … of Strain C9” value [3] was “−”. For the same compound, the “Product … of Stain A19” value [4] was “−”.

With `O=C[C@@H](O)[C@@H](O)[C@H](O)[C@H](O)CO` [D-Mannose] the “Product … of Strain N75” value [1] was “−”, the “Product … of Strain C11” value [2] was “−” and the “Product … of Strain C9” value [3] was “−”. The “Product … of Stain A19” value [4] was “∀ (a saccharide-transferred product was detected in an amount less than one percent through transfer reaction to acceptor)”.

In the case of `O=C(CO)[C@@H](O)[C@H](O)[C@@H](O)CO` [L-Sorbose], the “Product … of Strain N75” value [1] is reported as “+ (a saccharide-transferred product was detected in an amount over one percent but less than ten percent through transfer reaction to acceptor)”, the “Product … of Strain C11” value [2] is reported as “+ (a saccharide-transferred product was detected in an amount over one percent but less than ten percent through transfer reaction to acceptor)” and the “Product … of Strain C9” value [3] is reported as “+ (a saccharide-transferred product was detected in an amount over one percent but less than ten percent through transfer reaction to acceptor)”. The “Product … of Stain A19” value [4] was “+ (a saccharide-transferred product was detected in an amount over one percent but less than ten percent through transfer reaction to acceptor)”.

With `O=C[C@@H](O)[C@H](O)[C@@H](O)CO` [L-Xylose] the “Product … of Strain N75” value [1] was “++ (a saccharide-transferred product was detected in an amount over ten percent through transfer reaction to acceptor)”, the “Product … of Strain C11” value [2] was “++ (a saccharide-transferred product was detected in an amount over ten percent through transfer reaction to acceptor)” and the “Product … of Strain C9” value [3] was “++ (a saccharide-transferred product was detected in an amount over ten percent through transfer reaction to acceptor)”. For the same compound, the “Product … of Stain A19” value [4] was “+ (a saccharide-transferred product was detected in an amount over one percent but less than ten percent through transfer reaction to acceptor)”.

`OC[C@@H](O)[C@@H](O)[C@H](O)[C@@H](O)CO` [Sorbitol] was tested, and the “Product … of Strain N75” value [1] was “−”, the “Product … of Strain C11” value [2] was “−” and the “Product … of Strain C9” value [3] was “−”. The “Product … of Stain A19” value [4] was “−”.
